Consider three compounds from US20220106595A1, “ANTIBACTERIAL ANTISENSE AGENTS” (priority 2018, published 2022).

The test system of one data set is E. coli (ATCC25922). Nature of the data set: Urinary tract infection mouse model, E. coli (ATCC25922). It counts as in vivo. To be noted: 48 h post treatment. As to the method: Efficacy of PED-011 Against E. coli (ATCC25922) in the Urinary Tract Infection Mouse Model
Female BALB/c mice were infected trans-ureth rally with ˜ 5×10^8 CFU/animal E. coli (ATCC 25922). Four hours post infection animals were treated twice daily (Q12 h) orally with ciprofloxacin at 30 mg/kg and with single IV doses of PED-011 at 10 and 30 mg/kg (u.i.d). Ten animals from each group were terminated at 48 h post treatment, bladder and kidneys were collected to determine the bacterial load.
The vehicle for Ciprofloxacin was 0.25% of Carboxy Methyl Cellulose (CMC) (w/v) and PBS was used for PED-011. PED-011 was dissolved in PBS at 2 & 6 mg/mL. At four hours post infection, animals were treated with the first oral dose of ciprofloxacin and the single dose of PED-011 (10 and 30 mg/kg, IV, single bolus dose, 5 ml/kg dose volume). Animals received further doses of oral ciprofloxacin as per the dosing schedule.

Data set [1] concerns E. coli (CFT073, ATCC®700928™). In words: Urinary tract infection mouse model, uropathogenic E. coli (CFT073, ATCC 700928). It counts as in vivo. On the procedure:
Efficacy of PED-011 Against E. coli (CFT073, ATCC®700928™) in the Urinary Tract Infection Mouse Model; Challenge with a Uropathogenic Strain
Female BALB/c mice were infected trans-urethrally with ˜5×10^8 CFU/animal E. coli (CFT073, ATCC®700928™). Twenty-four hours post infection animals were treated twice daily (Q12 h) orally with ciprofloxacin at 30 mg/kg and with single IV doses of PED-011 at 3, 10 and 30 mg/kg (u.i.d). Ten animals from each group were terminated at 48 h post treatment (72 h post infection); bladder and kidneys were collected to determine the bacterial load.
The vehicle for Ciprofloxacin was 0.25% of Carboxy Methyl Cellulose (CMC) (w/v) and PBS was used for PED-011. PED-011 was dissolved in PBS at 0.6, 2 & 6 mg/mL. At twenty-four hours post infection, animals were treated with the first oral dose of ciprofloxacin and the single dose of PED-011 (10 and 30 mg/kg, IV, single bolus dose, 5 ml/kg dose volume). Animals received further doses of oral ciprofloxacin as per the dosing schedule.

The test system of the next data set is E. coli (ATCC BAA-2340). In words: Urinary tract infection mouse model, resistance strain E. coli (ATCC BAA-2340). The note with it: 48 h post treatment. It counts as in vivo. As to the method: Efficacy of PED-011 Against E. coli (ATCC BAA-2340) in the Urinary Tract Infection Mouse Model; Challenge with a Resistance Strain
Female BALB/c mice were infected trans-urethrally with ˜5×10^8 CFU/animal E. coli (ATCC BAA-2340). Twenty-four hours post infection animals were treated twice daily (Q12 h) orally with ciprofloxacin at 30 mg/kg and with single IV doses of PED-011 at 10 and 30 mg/kg (u.i.d). Ten animals from each group were terminated at 48 h post treatment; bladder and kidneys were collected to determine the bacterial load.
The vehicle for Ciprofloxacin was 0.25% of Carboxy Methyl Cellulose (CMC) (w/v) and PBS was used for PED-011. PED-011 was dissolved in PBS at 2 & 6 mg/mL. At twenty-four hour post infection, animals were be treated with the first oral dose of ciprofloxacin and the single dose of PED-011 (10 and 30 mg/kg, IV, single bolus dose, 5 ml/kg dose volume). Animals received further doses of oral ciprofloxacin as per the dosing schedule.

In a further data set the test system is A. baumannii (ATCC19606). In words: Neutropenic lung infection model in mice, A. baumannii (ATCC19606). It counts as in vivo. The note with it: FIG. 7.
Data set [2] in a line: Log D determination (shake-flask, PBS/1-octanol). It counts as physicochemical. To be noted: PBS pH 7.4 / 1-octanol. As to the method: (v) Log D Determinations:
Log D(PBS) determinations is performed in 96 well microtitre plates using a miniaturised “shake-flask” method. […] The plates are then capped and mixed vigorously for 1 hour on a microtitre plate shaker, after which they were left to stand, allowing the PBS and octanol phases to separate.
Where AUCstd and AUCpbs are the peak areas from the standard and test ion chromatograms respectively.

In the case of `O=C(O)c1cn(C2CC2)c2cc(N3CCNCC3)c(F)cc2c1=O` [Ciprofloxacin, reference compound], the “antibacterial effect in bladder (Log10 CFU/g) vs 4 h control and vehicle control” value in the data set with E. coli (ATCC25922) (30 mg/kg, p.o., Q12 h, p<0.05, FIG. 1) is “significant antibacterial effect”. Moreover, the “antibacterial effect in kidneys (Log10 CFU/g) vs 4 h control and vehicle control” value in the data set with E. coli (ATCC25922) (30 mg/kg, p.o., Q12 h, p<0.05, FIG. 2) is “significant antibacterial effect”. Moreover, the “bactericidal activity in bladder wrt 24 h PI control and vehicle control” value in data set [1] (30 mg/kg, p.o., b.i.d. Q12h, 72 h post infection, FIG. 3) is “significant (p<0.05) bactericidal activity”. In data set [1] (30 mg/kg, p.o., b.i.d. Q12h, 72 h post infection, p<0.05, FIG. 4), the “bactericidal activity in kidney wrt 24 h PI control and vehicle control” value was “significant bactericidal activity”. The “antibacterial effect in bladder vs 24 h control and vehicle control” value in the data set on E. coli (ATCC BAA-2340) (30 mg/kg, p.o., Q12 h, p<0.05, FIG. 5) is “significant antibacterial effect”. Besides, the “antibacterial effect in kidneys vs 24 h control and vehicle control” value with E. coli (ATCC BAA-2340) (30 mg/kg, p.o., Q12 h, p<0.05, FIG. 6) is listed as “significant antibacterial effect”. The “antibacterial effect in lung vs 52 h vehicle control” value in the data set on A. baumannii (ATCC19606) (10 mg/kg, po, Q12 h, p<0.05) is “significant antibacterial effect”.
“PED-011: Linker-6 (Sugar-L-Ala-NH(CH2)3CO) coupled to PMO PED-1, CTT CGA TAG TG (Sequence ID 57, AcpP) (CTTCGATAGTG; all phosphorodiamidate morpholino (PMO); Linker-6 sugar-L-Ala conjugate attached, position not given here, further chemistry not fully specified)”: the “Log D7.4” value in data set [2] worked out at 0.74. Moreover, the “antibacterial activity in bladder vs 4 h and vehicle control” value in the data set on E. coli (ATCC25922) (10 mg/kg, IV, single dose, FIG. 1) is on record as “not significantly effective”; in the data set on E. coli (ATCC BAA-2340) (10 mg/kg, IV, single dose, FIG. 5), “not significantly effective”. In addition, the “antibacterial activity in kidneys vs 4 h PI control and vehicle control” value is listed as “significant antibacterial activity” in the data set with E. coli (ATCC25922) (10 mg/kg, IV, single dose, p<0.05, FIG. 2); “significant antibacterial activity” in the data set on E. coli (ATCC25922) (30 mg/kg, IV, single dose, p<0.05, FIG. 2); “significant antibacterial activity” with E. coli (ATCC BAA-2340) (10 mg/kg, IV, single dose, p<0.05, FIG. 6). Moreover, the “antibacterial activity in bladder vs 4 h PI control and vehicle control” value in the data set with E. coli (ATCC25922) (30 mg/kg, IV, single dose, p<0.05, FIG. 1) is “significant antibacterial activity”. For the same compound, the “antibacterial effect in kidney compared to vehicle control” value in data set [1] (30 mg/kg, IV, 1 dose, p<0.05, FIG. 4) is “significant effect”; in data set [1] (3, 10 and 30 mg/kg, IV, 1 dose, FIG. 4) it was “dose dependent antibacterial effect”. The “mean bacterial counts in bladder” value in data set [1] (3, 10 and 30 mg/kg, IV, 1 dose, FIG. 3) is “dose dependent mean reduction in bacterial counts”. Besides, the “antibacterial effect in bladder wrt vehicle control” value in data set [1] (3, 10 and 30 mg/kg, IV, 1 dose, p>0.05, FIG. 3) is reported as “did not show significant antibacterial effect”. Further, the “antibacterial activity in bladder vs 24 h PI control and vehicle control” value in the data set on E. coli (ATCC BAA-2340) (30 mg/kg, IV, single dose, FIG. 5) is “a reduction but not statistically significant antibacterial activity”. The “antibacterial activity in kidneys vs 24 h PI control and vehicle control” value with E. coli (ATCC BAA-2340) (30 mg/kg, IV, single dose, p<0.05, FIG. 6) is listed as “significant antibacterial activity”.
In the case of “PED-012: Linker-6 coupled to PMO PED-2, TCA AAT GAG GC (Sequence ID 91, ftsZ) (TCAAATGAGGC; all phosphorodiamidate morpholino (PMO); Linker-6 conjugate attached at 3' morpholino end, 5' end group not given here, further chemistry not fully specified)”, in the data set with A. baumannii (ATCC19606) (10 mg/kg, IN, single dose, p>0.05), the “antibacterial activity in lung vs vehicle control at 52 h PI” value is “not significantly effective”. For the same compound, the “antibacterial activity in lung vs 52 h vehicle control” value with A. baumannii (ATCC19606) (30 mg/kg, IN, single dose, p<0.05) is reported as “significant antibacterial activity”.
